From ChEMBL document CHEMBL3392982, “Synthesis and membrane-protective activity of novel derivatives of α-mangostin at the C-4 position” (Bioorg Med Chem Lett, 2015)
Activity calls are given as the source filed them. The rule behind the calls is not given here.

Experiments:
[1] = Toxicity in mouse erythrocytes assessed as induction of hemolysis at 10 and 30 uM incubated for 5 hrs; assay type: cell-based; details: erythrocyte
Erythrocyte [2] = experiment: Membrane-protective activity in mouse erythrocytes assessed as inhibition of H2O2-induced hemolysis pre-incubated for 30 mins before H2O2 injection and measured 5 hrs post H2O2 injection; assay type: functional, cell-based
[3] = Toxicity in H2O2-induced mouse erythrocytes assessed as induction of hemolysis at 30 uM pre-incubated for 30 mins before H2O2 injection and measured 5 hrs post H2O2 injection; assay type: cell-based; details: erythrocyte
Erythrocyte [4] = experiment: Antioxidant activity in mouse erythrocytes assessed as inhibition of H2O2-induced secondary lipid peroxidation at 1 to 30 uM pre-incubated for 30 mins before H2O2 injection and measured 4 hrs post H2O2 injection by TBARS detection based spectrophotometry; assay type: functional, cell-based
Erythrocyte [5] = experiment: Inhibition of H2O2-induced oxyhemoglobin oxidation in mouse erythrocytes assessed as metHb/oxyHb ratio level at 1 uM pre-incubated for 30 mins before H2O2 injection and measured 5 hrs post H2O2 injection; assay type: functional; parameters: scale not given: the % may be the effect or the level left
Erythrocyte [6] = experiment: Inhibition of H2O2-induced oxyhemoglobin oxidation in mouse erythrocytes assessed as metHb/oxyHb ratio level at 10 uM pre-incubated for 30 mins before H2O2 injection and measured 5 hrs post H2O2 injection; assay type: functional; parameters: scale not given: the % may be the effect or the level left
Erythrocyte [7] = experiment: Inhibition of H2O2-induced oxyhemoglobin oxidation in mouse erythrocytes assessed as metHb/oxyHb ratio level at 30 uM pre-incubated for 30 mins before H2O2 injection and measured 5 hrs post H2O2 injection; assay type: functional; parameters: scale not given: the % may be the effect or the level left
Erythrocyte [8] = experiment: Inhibition of H2O2-induced oxyhemoglobin oxidation in mouse erythrocytes assessed as ferrylHb/oxyHb ratio level at 1 uM pre-incubated for 30 mins before H2O2 injection and measured 5 hrs post H2O2 injection; assay type: functional; parameters: scale not given: the % may be the effect or the level left
Erythrocyte [9] = experiment: Inhibition of H2O2-induced oxyhemoglobin oxidation in mouse erythrocytes assessed as ferrylHb/oxyHb ratio level at 10 uM pre-incubated for 30 mins before H2O2 injection and measured 5 hrs post H2O2 injection; assay type: functional; parameters: scale not given: the % may be the effect or the level left
Erythrocyte [10] = experiment: Inhibition of H2O2-induced oxyhemoglobin oxidation in mouse erythrocytes assessed as ferrylHb/oxyHb ratio level at 30 uM pre-incubated for 30 mins before H2O2 injection and measured 5 hrs post H2O2 injection; assay type: functional; parameters: scale not given: the % may be the effect or the level left
Erythrocyte [11] = experiment: Membrane-protective activity in mouse erythrocytes assessed as inhibition of H2O2-induced hemolysis at 10 to 30 uM pre-incubated for 30 mins before H2O2 injection and measured 5 hrs post H2O2 injection; assay type: functional, cell-based
Erythrocyte [12] = experiment: Membrane-protective activity in mouse erythrocytes assessed as inhibition of H2O2-induced hemolysis at 1 uM pre-incubated for 30 mins before H2O2 injection and measured 5 hrs post H2O2 injection; assay type: functional, cell-based
[13] = Toxicity in rabbit erythrocytes assessed as induction of cell death at 7.8 to 15.6 uM within 1 hr; assay type: cell-based, Oryctolagus cuniculus, Erythrocyte; details: read-out: Activity
[14] = Toxicity in rabbit erythrocytes assessed as induction of hemolysis at 10 uM within 1 hr; assay type: cell-based, Oryctolagus cuniculus, Erythrocyte; details: read-out: Activity
Erythrocyte [15] = experiment: Membrane-protective activity in mouse erythrocytes assessed as inhibition of H2O2-induced hemolysis at 30 uM pre-incubated for 30 mins before H2O2 injection and measured 5 hrs post H2O2 injection; assay type: functional, cell-based

Compound | Activity [1] | Activity (Erythrocyte [2]) | Activity [3] | Activity (Erythrocyte [4]) | Activity (Erythrocyte [5]) [%] | Activity (Erythrocyte [6]) [%] | Activity (Erythrocyte [7]) [%] | Activity (Erythrocyte [8]) [%] | Activity (Erythrocyte [9]) [%] | Activity (Erythrocyte [10]) [%] | Activity (Erythrocyte [11]) | Activity (Erythrocyte [12]) | hemolysis at 1 h, up to 15.6 µM [13] [%] | hemolysis at 1 h, 10 µM [14] [%] | Activity (Erythrocyte [15])
COc1c(O)cc2oc3c(CN(C)C)c(O)c(CC=C(C)C)c(O)c3c(=O)c2c1CC=C(C)C | Non-toxic | Dose-dependent effect | Toxic | Active | 65.8 | 37.5 | 196.4 | 67.4 | 35.5 | 162.3 |  |  |  |  | 
COc1c(O)cc2oc3c(CN4CCCCC4)c(O)c(CC=C(C)C)c(O)c3c(=O)c2c1CC=C(C)C | Non-toxic |  |  | Active | 56.9 | 40.7 | 24 | 58 | 32.3 | 18.5 | Active |  |  |  | 
COc1c(O)cc2oc3c(Cc4cc([C@H]5C[C@@H]6CC[C@@]5(C)C6(C)C)c(O)c([C@@H]5C[C@H]6CC[C@]5(C)C6(C)C)c4)c(O)c(CC=C(C)C)c(O)c3c(=O)c2c1CC=C(C)C | Non-toxic |  |  | Active | 60.1 | 77.3 | 105.6 | 61.5 | 70.9 | 64.2 |  | Active |  |  | 
COc1c(O)cc2oc3cc(O)c(CC=C(C)C)c(O)c3c(=O)c2c1CC=C(C)C [MANGOSTIN] | Toxic | Dose-dependent effect | Toxic | Active | 44.7 | 45.5 |  | 55.3 | 39.5 |  |  |  | 10.5 | 10.1 | 
COc1c(O)cc2oc3c(CN4CCOCC4)c(O)c(CC=C(C)C)c(O)c3c(=O)c2c1CC=C(C)C | Non-toxic |  |  | Active | 112.5 | 42.7 | 27.9 | 91.8 | 37.1 | 25.2 | Active |  |  |  | 
COc1c(O)cc2oc3c(Cc4cc(C(C)(C)C)c(O)c(C(C)(C)C)c4)c(O)c(CC=C(C)C)c(O)c3c(=O)c2c1CC=C(C)C | Non-toxic |  |  | Active | 98.4 | 63.8 | 35.5 | 81 | 53.3 | 22.5 |  |  |  |  | Active
